How the values were obtained:
[1] = system: erythrocytes; assay: Distribution of total radioactivity (3H/14C) on erythrocytes and plasma after one-time oral administration (FIG. 1); format: in vivo; details: 3H-labeled steroid skeleton
Source text: There are indications that in oral administration, both radicals R^1 and R^2, if they are different from a hydrogen atom, are cleaved off and are replaced by a hydrogen atom, so that in this case, not the group —SO2NR^1R^2, but rather the group —SO2NH2 is provided for the uptake into erythrocytes or binding to erythrocytes. […] The data also confirm that substances according to the invention are enriched in the erythrocyte compartment relative to the plasma.

[2] = system: erythrocytes; assay: Stability of the prodrug and release of the active ingredient in erythrocytes, plasma and tissues; format: in vitro ADME
Source text: If the compounds act as a prodrug, the therapeutically desirable action is obtained by release, especially hydrolytic cleavage, of the active ingredient that is contained in the product and/or its metabolites.

[3] = Hepatic estrogenicity after oral administration; format: in vivo
Source text: After oral administration, estradiol sulfamate is resorbed by the gastrointestinal tract and is taken up into erythrocytes or bonded to erythrocytes. […] The estradiol sulfamate is enriched in the erythrocytes by a multiple (factor: 98:2) of the plasma concentration, whereby a depot of the estradiol sulfamate is produced that makes possible the slow release of the estradiol sulfamate into peripheral tissues and target tissues (see FIG. 2). This makes possible an extension of the dwell time of the estradiol sulfamate in the organism, and the occurrence of very high levels in the plasma is avoided.

[4] = biological target: T1, carboanhydrase II (hCA II) (Homo sapiens, UniProt P00918); assay: Affinity chromatography of erythrocyte lysate proteins on immobilized estradiol sulfamate derivative, eluate analysed by Western blot; format: binding; details: ligand J1242 immobilized on E-AH-sepharose
T1 construct: proteins of erythrocyte-lysates were separated on the column; from tissue; host or cells: erythrocytes (lysate)
Source text: In FIG. 3, the chemical synthesis of a linkable estradiol sulfamate (J1242) is shown, which is described in S. Schwarz et al., Steroids 64 (1999) 460–471.
After the estradiol sulfamate derivative is immobilized in the column material (E-AH-sepharose), proteins of erythrocyte-lysates were separated on the column. The protein that is responsible for the binding of estradiol sulfamate in erythrocytes was adsorbed on the surface of the affinity chromatography column. After the protein remaining on the column was washed and eluted with an acetate buffer, the eluate was analyzed with use of the “Western Plot Technique” (see FIGS. 4 and 5).

Compound | presence of the 14C-labeled acyl substituent of the sulfamate radical in the blood [1] | site of release of the active ingredient from the prodrug [2] | stability of the compound in erythrocytes ([2]; erythrocytes) | hepatic estrogenicity [3] | binding to carrier protein in erythrocytes [4]
17β-hydroxy-estra-1,3,5(10)-trien-3-yl-(N-acetyl)sulfamate [J1045] | no longer present in the-blood | – | – | – | –
C[C@]12CC[C@@H]3c4ccc(OS(N)(=O)=O)cc4CC[C@H]3[C@@H]1CC[C@@H]2O [J995, estradiol sulfamate] | – | only in the plasma or in tissues | stable in the erythrocytes | reduced hepatic estrogenicity | binds to the carboanhydrase II (hCA II)

— patent publication US7507725B2, “Compounds with sulphonamide group and pharmaceutical compositions containing these compounds” (Schering AG, priority 2000, dated 2009)
